Like-named read-outs stand apart in the source and are kept apart here. Marks after values point to notes of the source that are not given here.
Assays:
P. falciparum strain D6 = experiment: [3H]-hypoxanthine growth inhibition assay, P. falciparum D6; format: cell-based; details: Plasmodium falciparum
In short: (§1)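 Parasites cultured in human O Rh+ RBCs in RPMI-1640-LPLF (low PABA and folic acid) with 10% human plasma, pH 6.9, 37° C, 5% O2/5% CO2/90% N2. Sorbitol-synchronised ring-stage cultures started at 1% parasitaemia; growth measured as [3H]-hypoxanthine incorporation in hypoxanthine-free medium. Compound stocks 1 mM in DMSO.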

P. falciparum strain W2 = experiment: [3H]-hypoxanthine growth inhibition assay, P. falciparum W2; format: cell-based; details: Plasmodium falciparum
In short: as §1

[1] = system: Plasmodium berghei (KBG-173 strain); experiment: Plasmodium berghei assay in vivo (modified Thompson Test) in CD-1 mice; details: for Average Days Survival: 31 day experiment
Protocol: In vivo antimalarial activity was tested in male or female Charles River CD-1 mice that were 4-5 weeks old and weighed 20-25 g They were housed in groups of 3 or 4 in standard plastic cages with wire tops, Bed-o-Cob® bedding, 12 hr/day of light, and maintained at 75° F. They were fed a standard Ralston Purina mouse chow and the cages and bottles were changed twice a week. Test compounds were ground in a mortar and pestle and diluted with enough vehicle to give a volume of 10 mL/kg of mouse weight. The oral doses were prepared in 0.5% hydroxyethylcellulose (Union Carbide Corp. WP 4400)/0.1% Tween-80 (Fisher Scientific T164-500). The amount of drug was calculated on the free base weight. The mice were infected intraperitoneally on day 0 with 5×10^4 erythrocytes parasitized with Plasmodium berghei (KBG-173 strain) from a donor mouse having a parasitemia between 5-10%. On days 3, 4 and 5 the test compounds were administered bid, spaced 6 hr apart, by oral gavage to the mice. Activity was measured by survival, with full activity defined as all animals living at day 31. Partial activity is defined as days of increased survival versus the infected non-treated controls. This in vivo model is a modification of the Thompson Test. For further description see Ager, A. L, Jr. Rodent Malaria Models. In Handbook of Experimental Pharmacology: Antimalarial Drugs. 1. 68/1; Peters, W., Richards, W. H. G., Eds.: Springer-Verlag: Berlin, 1984, pp. 231-33.

hERG potassium channel = hERG potassium channel (Homo sapiens, UniProt Q12809); experiment: Whole cell patch clamp of cloned hERG potassium channels expressed in HEK293 cells; format: cell-based
Chain of hERG potassium channel (Q12809 whole entry): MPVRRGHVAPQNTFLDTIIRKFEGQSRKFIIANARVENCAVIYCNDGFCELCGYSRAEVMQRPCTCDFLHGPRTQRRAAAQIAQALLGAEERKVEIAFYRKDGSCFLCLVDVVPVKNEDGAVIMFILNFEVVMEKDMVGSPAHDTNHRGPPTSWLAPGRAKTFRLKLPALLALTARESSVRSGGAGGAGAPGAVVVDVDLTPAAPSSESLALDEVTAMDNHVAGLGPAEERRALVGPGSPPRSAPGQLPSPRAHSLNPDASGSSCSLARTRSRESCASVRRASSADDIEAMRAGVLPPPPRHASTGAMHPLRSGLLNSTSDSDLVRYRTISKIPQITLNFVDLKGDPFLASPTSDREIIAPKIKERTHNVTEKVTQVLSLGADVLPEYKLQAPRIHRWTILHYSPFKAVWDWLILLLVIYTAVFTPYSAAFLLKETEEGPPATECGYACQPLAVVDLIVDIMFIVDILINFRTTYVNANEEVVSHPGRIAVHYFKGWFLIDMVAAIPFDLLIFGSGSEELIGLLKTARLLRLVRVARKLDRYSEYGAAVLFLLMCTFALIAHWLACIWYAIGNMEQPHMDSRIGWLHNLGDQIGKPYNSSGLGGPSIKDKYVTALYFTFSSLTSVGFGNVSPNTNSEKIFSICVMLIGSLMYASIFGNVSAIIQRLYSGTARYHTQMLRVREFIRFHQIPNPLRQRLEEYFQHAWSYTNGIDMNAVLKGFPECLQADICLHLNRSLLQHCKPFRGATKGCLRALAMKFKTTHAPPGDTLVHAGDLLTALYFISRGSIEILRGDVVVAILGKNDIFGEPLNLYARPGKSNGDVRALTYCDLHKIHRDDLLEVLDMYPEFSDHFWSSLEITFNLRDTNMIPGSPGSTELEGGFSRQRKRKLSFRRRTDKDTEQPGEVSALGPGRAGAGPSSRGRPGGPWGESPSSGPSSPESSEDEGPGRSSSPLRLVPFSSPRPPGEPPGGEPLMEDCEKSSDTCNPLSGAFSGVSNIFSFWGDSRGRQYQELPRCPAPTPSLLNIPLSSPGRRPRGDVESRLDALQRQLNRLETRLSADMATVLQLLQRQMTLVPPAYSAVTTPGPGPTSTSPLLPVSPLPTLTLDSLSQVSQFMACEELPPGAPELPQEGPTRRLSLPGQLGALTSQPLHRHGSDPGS
From the text: For in vitro testing, the functional hERG assay using conventional patch clamp electrophysiology is considered the gold standard for assessment of drug interactions with the hERG potassium channel (Yao et al., Br. J. Pharmacol. 2008, 154, 1446-1456). In this assay, hERG channels are expressed in a human embryonic kidney (HEK293) cell line that lacks endogenous IKr.
The objective of this study was to examine the in vitro effects of test articles on the hERG (human ether-à-go-go-related gene) potassium channel current (a surrogate for IKr, the rapidly activating delayed rectifier cardiac potassium current).
All chemicals used in solution preparation were purchased from Sigma-Aldrich (St. Louis, Mo.) unless otherwise noted and were of ACS reagent grade purity or higher. Stock solutions of the test article and the positive control were prepared in dimethyl sulfoxide (DMSO) and stored frozen. Test article and positive control concentrations were prepared fresh daily by diluting stock solutions into a HEPES-buffered physiological saline (HB-PS) solution (composition in mM): NaCl, 137; KCl, 4.0; CaCl2, 1.8; MgCl2, 1; HEPES, 10; Glucose, 10; pH adjusted to 7.4 with NaOH (prepared weekly and refrigerated until use).
HEK/hERG • Organism: Homo sapiens • Designation: 293 • Tissue: Kidney; Transformed with adenovirus 5 DNA; Transfected with human-ether-a-go-go cDNA • Morphology: Epithelial • Age Stage Embryo • Source Strain: ATCC, Manassas, Va. • Source Substrain ChanTest Corporation, Cleveland, Ohio
HEK293 cells were stably transfected with hERG cDNA. Stable transfectants were selected by coexpression with the G418-resistance gene incorporated into the expression plasmid. Selection pressure was maintained by including G418 in the culture medium. Cells were cultured in Dulbecco's Modified Eagle Medium/Nutrient Mixture F-12 (D-MEM/F-12) supplemented with 10% fetal bovine serum, 100 U/mL penicillin G sodium, 100 μg/mL streptomycin sulfate and 500 μg/mL G418.
All experiments were performed at room temperature. Each cell acted as its own control.
Experiments were performed as outlined in the section entitled Experimental Procedures. Concentrations were selected to evaluate the concentration-response relationship of each test article based on the initial results or the solubility limits in vehicle. Each concentration was tested in at least three cells (n≧3).
Cells were transferred to the recording chamber and superfused with vehicle control solution. Micropipette solution for whole cell patch clamp recordings was composed of (mM): potassium aspartate, 130; MgCl2, 5; EGTA, 5; ATP, 4; HEPES, 10; pH adjusted to 7.2 with KOH. Pipette solution was prepared in batches, aliquoted, stored frozen, and a fresh aliquot was thawed each day. Patch pipettes were made from glass capillary tubing using a P-97 micropipette puller (Sutter Instruments, Novato, Calif.). A commercial patch clamp amplifier was used for whole cell recordings. Before digitization, current records were low-pass filtered at one-fifth of the sampling frequency.
Onset and steady state inhibition of hERG current was measured using a pulse pattern with fixed amplitudes (conditioning prepulse: +20 mV for 2 s; test pulse: −50 mV for 2 s) repeated at 10 s intervals, from a holding potential of −80 mV. Peak tail current was measured during the 2 s step to −50 mV.
Each test article at 10 μM was applied to at least 3 cells (n≧3).
One or more test article concentrations were applied sequentially (without washout between test substance concentrations) in ascending order, to each cell (n≧3). A steady state was maintained for at least 30 s before applying test article or positive control. Peak current was measured until a new steady state was achieved.
Steady state was defined by the limiting constant rate of change with time (linear time dependence). The steady state before and after test article application was used to calculate the percentage of current inhibited at each concentration. […]

[2] = P. falciparum D6 (sensitive to chloroquine and pyrimethamine), [3H]-hypoxanthine incorporation, read-out: D6 IC50
[3] = P. falciparum W2 (resistant to chloroquine and pyrimethamine), [3H]-hypoxanthine incorporation, read-out: W2 IC50
[4] = 4 mg/kg/day oral, bid on days 3, 4 and 5
[5] = 8 mg/kg/day oral, bid on days 3, 4 and 5
[6] = 16 mg/kg/day oral, bid on days 3, 4 and 5
[7] = 32 mg/kg/day oral, bid on days 3, 4 and 5
[8] = 64 mg/kg/day oral, bid on days 3, 4 and 5
[9] = Plasmodium berghei, 744 h, 4 mg/kg/day oral, bid on days 3, 4 and 5, CD-1 mice infected with P. berghei, read-out: Number of mice alive at day 31 (converted)
[10] = Plasmodium berghei, 744 h, 8 mg/kg/day oral, bid on days 3, 4 and 5, CD-1 mice infected with P. berghei, read-out: Number of mice alive at day 31 (converted)
[11] = Plasmodium berghei, 744 h, 16 mg/kg/day oral, bid on days 3, 4 and 5, CD-1 mice infected with P. berghei, read-out: Number of mice alive at day 31 (converted)
[12] = Plasmodium berghei, 744 h, 32 mg/kg/day oral, bid on days 3, 4 and 5, CD-1 mice infected with P. berghei, read-out: Number of mice alive at day 31 (converted)
[13] = Plasmodium berghei, 744 h, 64 mg/kg/day oral, bid on days 3, 4 and 5, CD-1 mice infected with P. berghei, read-out: Number of mice alive at day 31 (converted)
[14] = Plasmodium berghei, po, 744 h, read-out: Number of mice alive at day 31

SMILES	IC50 (P. falciparum strain D6; [2]) [nM]	IC50 (P. falciparum strain W2; [3]) [nM]	Average Days Survival [1, 4]	Average Days Survival [1, 5]	Average Days Survival [1, 6]	Average Days Survival [1, 7]	Average Days Survival [1, 8]	responders at 4 mg/kg [1, 9] [%]	responders at 8 mg/kg [1, 10] [%]	responders at 16 mg/kg [1, 11] [%]	responders at 32 mg/kg [1, 12] [%]	responders at 64 mg/kg [1, 13] [%]	also measured
CC(C)(C)NCc1cc(C(C)(C)C)cc(-c2ccc(S(C)(=O)=O)nc2)c1O.Cl [Example 43, 4-(tert-Butyl)-2-((tert-butylamino)methyl)-6-(6-(methylsulfonyl)pyridin-3-yl)phenol hydrochloride]	158	100	–	–	–	–	–	–	–	–	–	–	melting point: 229 to 232 °C
CC(C)(C)NCc1cc(-c2ccc(Cl)cc2)cc(-c2ccc(C(F)(F)F)nc2)c1O.Cl [Example 70, 3-((tert-Butylamino)methyl)-4′-chloro-5-(6-(trifluoromethyl)pyridin-3-yl)-[1,1′-biphenyl]-4-ol hydrochloride]	90	48	>19.5 days	>21.5 days	>19 days	>31* days	>31* days	42.9	71.4	57.1	100	100	–
CC(C)(C)c1cc(CN(CC2CCCCC2)C(C)(C)C)c(O)c(-c2ccc(C(F)(F)F)nc2)c1.Cl [Example 58, 4-(tert-Butyl)-2-((tert-butyl(cyclohexylmethyl)amino)methyl)-6-(6-(trifluoromethyl)pyridin-3-yl)phenol hydrochloride]	1020	541	>17.5 days	>20 days	>23.8 days	>26 days	>31* days	14.3	42.9	42.9	85.7	100	–
CCN(CC)CCCC(C)Nc1ccnc2cc(Cl)ccc12 (stereo not shown) [Chloroquine, chloroquine, reference compound]	–	–	10.3 days	–	>18.8 days	–	>18.6 days	–	–	–	–	–	IC50 (P. falciparum strain D6; D6, read-out: D6 IC50): 12 nM; IC50 (P. falciparum strain W2; W2, read-out: W2 IC50): 133 nM; Average Days Survival ([1]; 128 mg/kg/day oral, bid on days 3, 4 and 5): >21.3 days; responders at 4 mg/kg [1, 14]: 0%; responders at 16 mg/kg [1, 14]: 14.3%; responders at 64 mg/kg [1, 14]: 28.6%; responders at 128 mg/kg [1, 14]: 57.1%
CC(C)(C)NCc1cc(C(C)(C)C)cc(-c2ccc(Cl)cc2)c1O [WR-194,965, 4-(tert-butyl)-2-(tert-butylaminomethyl)-6-(4-chlorophenyl)phenol, reference compound]	–	–	–	–	–	–	–	–	–	–	–	–	IC50 (hERG potassium channel; HEK293/hERG, patch clamp, read-out: IC50 for the inhibitory effect on hERG potassium current): 1100 nM; Hill coefficient of hERG inhibition (hERG potassium channel; fit of concentration-response data): 1.4; inhibition at 0.3 µM (hERG potassium channel; human, HEK293 cells stably expressing hERG, pH 7.4, 0.3 μM, HEK293/hERG, room temperature, read-out: Mean percentage of hERG current inhibited): 12.8%; inhibition at 1 µM (hERG potassium channel; human, HEK293 cells stably expressing hERG, pH 7.4, 1 μM, HEK293/hERG, room temperature, read-out: Mean percentage of hERG current inhibited): 47.5%; inhibition at 3 µM (hERG potassium channel; human, HEK293 cells stably expressing hERG, pH 7.4, 3 μM, HEK293/hERG, room temperature, read-out: Mean percentage of hERG current inhibited): 80.3%; inhibition at 10 µM (hERG potassium channel; human, HEK293 cells stably expressing hERG, pH 7.4, 10 μM, HEK293/hERG, room temperature, read-out: Mean percentage of hERG current inhibited): 97.2%
CC(C)(C)c1cc2c(c(-c3ccc(C(F)(F)F)nc3)c1)OCN(C(C)(C)C)C2 [Example 75, 3,6-di-tert-Butyl-8-(6-(trifluoromethyl)pyridin-3-yl)-3,4-dihydro-2H-benzo[e][1,3]oxazine]	20	12	>22 days	>25 days	>31* days	>31* days	>31* days	57.1	57.1	100	100	100	–
CC(C)(C)NCc1cc(C(C)(C)C)cc(-c2cnc(C(F)(F)F)c(Cl)c2)c1O.Cl [Example 44, 4-(tert-Butyl)-2-((tert-butylamino)methyl)-6-(5-chloro-6-(trifluoromethyl)pyridin-3-yl)phenol hydrochloride]	11	6	>31* days	>31* days	>31* days	>31* days	>31* days	100	100	100	100	100	–
